Measured values as given in ChEMBL document CHEMBL1125793 (J Med Chem, 1991).

Biological target: T1, Angiotensin II receptor (Rattus norvegicus, UniProt P29089+P25095+P35351)
T1 sequence (P29089 whole entry): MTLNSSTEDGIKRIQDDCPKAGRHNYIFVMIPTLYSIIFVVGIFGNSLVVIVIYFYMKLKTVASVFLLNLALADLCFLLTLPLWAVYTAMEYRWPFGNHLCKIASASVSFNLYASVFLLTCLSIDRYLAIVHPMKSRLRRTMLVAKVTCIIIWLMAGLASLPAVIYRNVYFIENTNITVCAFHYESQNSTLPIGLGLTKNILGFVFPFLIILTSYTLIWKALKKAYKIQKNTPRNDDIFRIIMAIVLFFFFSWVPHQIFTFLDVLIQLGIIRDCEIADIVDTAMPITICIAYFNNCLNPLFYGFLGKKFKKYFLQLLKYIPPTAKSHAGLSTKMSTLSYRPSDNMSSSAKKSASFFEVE
T1 sequence (P25095 whole entry): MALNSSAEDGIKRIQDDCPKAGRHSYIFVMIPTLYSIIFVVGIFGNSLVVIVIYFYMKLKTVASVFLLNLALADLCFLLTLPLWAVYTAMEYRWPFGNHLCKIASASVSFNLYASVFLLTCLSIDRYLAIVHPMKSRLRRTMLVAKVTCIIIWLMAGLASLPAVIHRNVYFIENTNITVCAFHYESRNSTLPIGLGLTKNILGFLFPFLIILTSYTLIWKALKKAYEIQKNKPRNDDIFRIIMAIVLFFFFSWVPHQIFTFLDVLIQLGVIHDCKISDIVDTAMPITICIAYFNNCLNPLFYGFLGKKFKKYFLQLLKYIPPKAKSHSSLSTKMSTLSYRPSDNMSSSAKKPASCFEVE
T1 sequence (P35351 whole entry): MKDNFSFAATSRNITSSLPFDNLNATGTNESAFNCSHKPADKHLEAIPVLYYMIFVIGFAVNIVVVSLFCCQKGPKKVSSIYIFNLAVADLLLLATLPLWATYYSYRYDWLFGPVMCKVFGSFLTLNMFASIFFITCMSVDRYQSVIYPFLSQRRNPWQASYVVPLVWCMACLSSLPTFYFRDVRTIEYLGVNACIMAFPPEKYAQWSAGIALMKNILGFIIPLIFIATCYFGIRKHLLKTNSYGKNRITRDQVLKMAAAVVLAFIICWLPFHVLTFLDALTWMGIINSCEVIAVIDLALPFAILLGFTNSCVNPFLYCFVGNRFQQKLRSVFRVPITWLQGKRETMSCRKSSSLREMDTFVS
Assay: Binding affinity against Angiotensin II receptor, from rat adrenal gland
Type: tissue-based

Structure (SMILES)	IC50
O=C(O)C1Cc2c(ncn2Cc2ccccc2)CN1C(=O)C(c1ccccc1)c1ccccc1 (stereo in doubt; 18)	1 µM
CCc1cc(Cn2cnc3c2C[C@@H](C(=O)O)N(C(=O)C(c2ccccc2)c2ccccc2)C3)ccc1OC	0.05 µM
O=C(O)[C@@H]1Cc2c(ncn2Cc2ccc(F)cc2)CN1C(=O)C(c1ccccc1)c1ccccc1	0.45 µM
O=C(O)C1Cc2c(ncn2Cc2ccccc2)CN1C(=O)Nc1ccccc1 (stereo unspecified)	2.1 µM
COc1ccc(Cn2cnc3c2CC(CO)N(C(=O)N(C)c2ccccc2)C3)cc1C (stereo unspecified)	0.52 µM
COc1ccc(Cn2cnc3c2C[C@@H](C(=O)O)N(C(=O)C(c2ccc([N+](=O)[O-])cc2)c2ccc([N+](=O)[O-])cc2)C3)cc1C	13 µM
COc1ccc(Cn2cnc3c2C[C@@H](C(=O)O)N(C(=O)C(c2ccccc2)c2ccccc2)C3)cc1	0.29 µM
O=C(O)[C@@H]1Cc2c(ncn2Cc2cccc(Br)c2)CN1C(=O)C(c1ccccc1)c1ccccc1	0.65 µM
COc1ccc(Cn2cnc3c2C[C@@H](C(=O)O)N(C(=O)C(Cc2ccccc2)c2ccccc2)C3)cc1C (stereo partly specified)	3.5 µM
O=C(O)C1Cc2c(ncn2Cc2ccccc2)CN1C(=O)c1cccc2ccccc12 (stereo unspecified)	9.8 µM
COc1ccc(Cn2cnc3c2C[C@@H](C(=O)O)N(C(=O)C(c2ccccc2)c2ccccc2)C3)cc1OC	0.098 µM
COc1ccc(C(C(=O)N2Cc3ncn(Cc4ccccc4)c3CC2C(=O)O)c2ccc(OC)cc2)cc1 (stereo unspecified)	0.61 µM
COc1ccc(Cn2cnc3c2C[C@@H](C(=O)O)N(C(=O)Cc2ccccc2)C3)cc1C	0.53 µM
O=C(O)[C@@H]1Cc2c(ncn2CCc2ccccc2)CN1C(=O)C(c1ccccc1)c1ccccc1	0.24 µM
O=C(O)C1Cc2c(ncn2Cc2ccccc2)CN1C(=O)CC(c1ccccc1)c1ccccc1 (stereo unspecified)	1.2 µM
O=C(O)C1Cc2c(ncn2Cc2ccccc2)CN1C(=O)OCc1ccccc1 (stereo in doubt; 7a)	4.2 µM
O=C(O)C1Cc2c(ncn2Cc2ccccc2)CN1C(=O)NCc1ccccc1 (stereo unspecified)	11 µM

Structure (SMILES)	IC50
O=C(C(c1ccccc1)c1ccccc1)N1Cc2ncn(Cc3ccccc3)c2CC1CO (stereo unspecified)	2.1 µM
COc1ccc(Cn2cnc3c2C[C@@H](C(=O)O)N(C(=O)C2(c4ccccc4)CCCCC2)C3)cc1C	0.11 µM
Cc1cc(Cn2cnc3c2CC(CO)N(C(=O)C(c2ccccc2)c2ccccc2)C3)ccc1N(C)C (stereo unspecified)	0.2 µM
O=C(O)C1Cc2c(ncn2Cc2ccccc2)CN1C(=O)/C=C/c1ccccc1 (stereo unspecified)	2.5 µM
CN(C(=O)N1Cc2ncn(Cc3ccccc3)c2CC1C(=O)O)c1ccccc1 (stereo in doubt; 3a)	1.1 µM
O=C(O)C1Cc2c(ncn2Cc2ccccc2)CN1C(=O)C(c1ccc([N+](=O)[O-])cc1)c1ccc([N+](=O)[O-])cc1 (stereo unspecified)	13 µM
O=C(C(=O)N1Cc2ncn(Cc3ccccc3)c2CC1C(=O)O)c1ccccc1 (stereo unspecified)	2.4 µM
COc1ccc(Cn2cnc3c2C[C@@H](C(=O)O)N(C(=O)CC2CCCCC2)C3)cc1C	2 µM
O=C(O)[C@H]1Cc2c(ncn2Cc2ccccc2)CN1C(=O)C(c1ccccc1)c1ccccc1	1.2 µM
O=C(Cc1ccccc1)N1Cc2ncn(Cc3ccccc3)c2CC1CO (stereo unspecified)	5.2 µM
COc1ccc(Cn2cnc3c2C[C@@H](C(=O)O)N(C(=O)/C=C\c2ccccc2)C3)cc1C	2.2 µM
COc1ccc(Cn2cnc3c2C[C@@H](C(=O)O)N(C(=O)N(C)c2ccccc2)C3)cc1C	0.14 µM
O=C(O)C1Cc2c(ncn2Cc2ccccc2)CN1S(=O)(=O)Cc1ccccc1 (stereo unspecified)	19 µM
COc1ccc(Cn2cnc3c2C[C@@H](C(=O)O)N(C(=O)C(c2ccc(C)cc2)c2ccc(C)cc2)C3)cc1C	0.51 µM
O.O=C(O)[C@@H]1Cc2c(ncn2CC2CCCCC2)CN1C(=O)C(c1ccccc1)c1ccccc1	0.34 µM
COc1ccc(Cn2cnc3c2C[C@@H](C(=O)O)N(C(=O)C(c2ccccc2)c2ccccc2)C3)cc1C	0.07 µM
CC(c1ccccc1)n1cnc2c1C[C@@H](C(=O)O)N(C(=O)C(c1ccccc1)c1ccccc1)C2 (stereo partly specified)	1.1 µM

More lines, now with the values ahead:

IC50	Structure (SMILES)
5.1 µM	COC(=O)C1Cc2c(ncn2Cc2ccc([N+](=O)[O-])c(C)c2)CN1C(=O)C(c1ccccc1)c1ccccc1 (stereo unspecified)
0.24 µM	O=C(O)[C@@H]1Cc2c(ncn2CCC2CCCCC2)CN1C(=O)C(c1ccccc1)c1ccccc1
6.7 µM	O=C(C(c1ccccc1)C1CCCC1)N1Cc2ncn(Cc3ccccc3)c2CC1CO (stereo unspecified)
0.3 µM	Cc1ccc(Cn2cnc3c2C[C@@H](C(=O)O)N(C(=O)C(c2ccccc2)c2ccccc2)C3)cc1C
0.35 µM	CC(=O)Nc1ccc(Cn2cnc3c2C[C@@H](C(=O)O)N(C(=O)C(c2ccccc2)c2ccccc2)C3)cc1
13 µM	O=C(O)C1Cc2c(ncn2Cc2ccccc2)CN1C(=O)CCc1ccccc1 (stereo unspecified)
4.1 µM	CN(Cc1ccccc1)C(=O)N1Cc2ncn(Cc3ccccc3)c2CC1C(=O)O (stereo unspecified)
8.4 µM	Nc1ccc(C(C(=O)N2Cc3ncn(Cc4ccccc4)c3CC2C(=O)O)c2ccc(N)cc2)cc1 (stereo unspecified)
0.14 µM	Cc1cc(C)cc(Cn2cnc3c2C[C@@H](C(=O)O)N(C(=O)C(c2ccccc2)c2ccccc2)C3)c1
0.085 µM	CN(C)c1ccc(Cn2cnc3c2C[C@@H](C(=O)O)N(C(=O)C(c2ccccc2)c2ccccc2)C3)cc1
2 µM	Cc1cc(Cn2cnc3c2CC(CO)N(C(=O)C(c2ccccc2)c2ccccc2)C3)ccc1[N+](=O)[O-] (stereo unspecified)
0.11 µM	O=C(O)[C@@H]1Cc2c(ncn2C(c2ccccc2)c2ccccc2)CN1C(=O)C(c1ccccc1)c1ccccc1
1.2 µM	CN(C(=O)N1Cc2ncn(Cc3ccccc3)c2CC1C(=O)O)c1ccccc1 (stereo in doubt; 3)
0.35 µM	COC(=O)C1Cc2c(ncn2Cc2ccc(N(C)C)c(C)c2)CN1C(=O)C(c1ccccc1)c1ccccc1 (stereo unspecified)
2.1 µM	O=C(O)C1Cc2c(ncn2Cc2ccccc2)CN1C(=O)C(c1ccc(F)cc1)c1ccc(F)cc1 (stereo unspecified)
0.84 µM	COc1ccc(Cn2cnc3c2C[C@@H](C(=O)O)N(C(=O)C2(c4ccccc4)CCCC2)C3)cc1C
0.056 µM	Cc1cc(Cn2cnc3c2C[C@@H](C(=O)O)N(C(=O)C(c2ccccc2)c2ccccc2)C3)ccc1O
0.15 µM	Nc1ccc(Cn2cnc3c2C[C@@H](C(=O)O)N(C(=O)C(c2ccccc2)c2ccccc2)C3)cc1
9.5 µM	COc1ccc(Cn2cnc3c2C[C@@H](C(=O)O)N(C(=O)C(C)(c2ccccc2)c2ccccc2)C3)cc1C

IC50	Structure (SMILES)
0.27 µM	O=C(O)[C@@H]1Cc2c(ncn2Cc2ccc3ccccc3c2)CN1C(=O)C(c1ccccc1)c1ccccc1
4.6 µM	O=C(O)C1Cc2c(ncn2Cc2ccccc2)CN1C(=O)Oc1ccccc1 (stereo unspecified)
4.4 µM	COc1ccc(Cn2cnc3c2CCN(C(=O)C(c2ccccc2)c2ccccc2)C3)cc1C
0.26 µM	COc1ccc(Cn2cnc3c2C[C@@H](C(=O)O)N(C(=O)C(c2ccccc2)c2ccccc2)C3)cc1F
2.4 µM	COc1ccc(Cn2cnc3c2C[C@@H](C(=O)O)N(C(=O)C(c2ccc(Cl)cc2)c2ccc(Cl)cc2)C3)cc1C
1.4 µM	O=C(O)C1Cc2c(ncn2Cc2ccccc2)CN1C(=O)Cc1ccccc1 (stereo in doubt; 14)
0.29 µM	CCN(CC)c1ccc(Cn2cnc3c2C[C@@H](C(=O)O)N(C(=O)C(c2ccccc2)c2ccccc2)C3)cc1
0.051 µM	COc1ccc(Cn2cnc3c2C[C@@H](C(=O)O)N(C(=O)C(c2ccccc2)c2ccccc2)C3)cc1[N+](=O)[O-]
6.1 µM	O=C(C(c1ccccc1)c1ccccc1)N1CCc2c(ncn2Cc2ccccc2)C1
29 µM	O=C(O)C1Cc2ncn(Cc3ccccc3)c2CN1C(=O)/C=C/c1ccccc1 (stereo unspecified)
4.2 µM	Cc1ccc(S(=O)(=O)N2Cc3ncn(Cc4ccccc4)c3CC2C(=O)O)cc1 (stereo unspecified)
0.29 µM	Cc1cc(Cn2cnc3c2C[C@@H](C(=O)O)N(C(=O)C(c2ccccc2)c2ccccc2)C3)ccc1[N+](=O)[O-]
0.12 µM	COc1cccc(Cn2cnc3c2C[C@@H](C(=O)O)N(C(=O)C(c2ccccc2)c2ccccc2)C3)c1
1.6 µM	CN(C(=O)N1Cc2ncn(Cc3ccccc3)c2CC1CO)c1ccccc1 (stereo unspecified)
0.46 µM	O=C(O)[C@@H]1Cc2c(ncn2Cc2cccc(C(F)(F)F)c2)CN1C(=O)C(c1ccccc1)c1ccccc1
8.8 µM	COC(=O)C1Cc2c(ncn2Cc2ccccc2)CN1C(=O)C(c1ccccc1)c1ccccc1 (stereo unspecified)
2.3 µM	COc1ccc(Cn2cnc3c2C[C@@H](C(=O)O)N(C(=O)C(c2ccc(F)cc2)c2ccc(F)cc2)C3)cc1C
14 µM	O=C(O)C1Cc2c(ncn2Cc2ccccc2)CN1C(=O)OCc1ccccc1 (stereo in doubt; 7)
